Measured values published in patent US20130096119A1, “Isoquinolin-3-Ylurea Derivatives” (priority 2010, published 2013).
In brackets after ≈: the same amount, converted by molar mass.

Tested on: S. pneumoniae ATCC 49619
Test: Minimal inhibitory concentration (MIC) by microdilution method (CLSI M7-A7)
Type: cell-based, Streptococcus pneumoniae
Conditions: Streptococcus pneumoniae, ATCC49619, cation-adjusted Mueller-Hinton Broth supplemented with 3% (v/v) lysed horse blood
Procedure, shortened: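 Broth microdilution per CLSI M7-A7 in cation-adjusted Mueller-Hinton broth, supplemented with 3% (v/v) lysed horse blood for S. pneumoniae; MIC reported in mg/l.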

Row | SMILES | MIC [µg/mL]
1 | CCNC(=O)Nc1cc2cc(-c3ccc4c(c3)CCO4)cc(C)c2cn1 [Example 83, 1-[6-(2,3-dihydro-benzofuran-5-yl)-8-methyl-isoquinolin-3-yl]-3-ethyl-urea] | 1 (≈ 2.88 µM)
2 | CCNC(=O)Nc1cc2cccc(Nc3ccc(C)c(C(=O)O)c3)c2cn1 [Example 265, 5-[3-(3-ethyl-ureido)-isoquinolin-8-ylamino]-2-methyl-benzoic acid] | 1 (≈ 2.74 µM)
3 | CCNC(=O)Nc1cc2cc(NCc3cccc(C(=O)OC)c3)cc(C)c2cn1 [Example 126, 3-{[3-(3-ethyl-ureido)-8-methyl-isoquinolin-6-ylamino]-methyl}-benzoic acid methyl ester] | 8 (≈ 20.4 µM)
4 | CCNC(=O)Nc1cc2c(F)c(-c3cnc4ccccc4c3)cc(C)c2cn1 [Example 143, 1-ethyl-3-[5-fluoro-8-methyl-6-(quinolin-3-yl)-isoquinolin-3-yl]-urea] | 0.125 (≈ 0.334 µM)
5 | CCNC(=O)Nc1cc2cccc(Nc3cccc(C(=O)N(C)C)c3)c2cn1.Cl [Example 199, 3-[3-(3-ethyl-ureido)-isoquinolin-8-ylamino]-N,N-dimethyl-benzamide hydrochloride] | 1
6 | CCNC(=O)Nc1cc2c(-c3ccc(O)cc3)ccc(Nc3cccnc3)c2cn1 [Example 228, 1-ethyl-3-[5-(4-hydroxy-phenyl)-8-(pyridin-3-ylamino)-isoquinolin-3-yl]-urea] | 2 (≈ 5.01 µM)
7 | CCNC(=O)Nc1cc2cc(NC(=O)c3ccccc3)ccc2cn1 [Example 52, N-[3-(3-ethyl-ureido)-isoquinolin-6-yl]-benzamide] | 2 (≈ 5.98 µM)
8 | CCNC(=O)Nc1cc2cccc(NCc3cccnc3)c2cn1 [Example 71, 1-ethyl-3-{8-[(pyridin-3-ylmethyl)-amino]-isoquinolin-3-yl}-urea] | 16 (≈ 49.8 µM)
9 | CCNC(=O)Nc1cc2cc(-c3ccc4ccccc4c3)cc(C)c2cn1 [Example 79, 1-ethyl-3-(8-methyl-6-naphthalen-2-yl-isoquinolin-3-yl)-urea] | 1 (≈ 2.81 µM)
10 | CCNC(=O)Nc1cc2cccc(Nc3cccc(NC(C)=O)c3)c2cn1 [Example 172, N-{3-[3-(3-ethyl-ureido)-isoquinolin-8-ylamino]-phenyl}-acetamide] | 2 (≈ 5.5 µM)
11 | CCNC(=O)Nc1cc2cccc(CNc3ccnn3C)c2cn1.Cl [Example 303, 1-ethyl-3-{8-[(2-methyl-2H-pyrazol-3-ylamino)-methyl]-isoquinolin-3-yl}-urea hydrochloride] | 4
12 | CCNC(=O)Nc1cc2cccc(Nc3ccc(C(=O)O)cc3)c2cn1 [Example 202, 4-[3-(3-ethyl-ureido)-isoquinolin-8-ylamino]-benzoic acid] | 1 (≈ 2.85 µM)
13 | CCNC(=O)Nc1cc2c(-c3ccc(CO)cc3)ccc(Nc3cccnc3)c2cn1 [Example 226, 1-ethyl-3-[5-(4-hydroxymethyl-phenyl)-8-(pyridin-3-ylamino)-isoquinolin-3-yl]-urea] | 1 (≈ 2.42 µM)
14 | CCNC(=O)Nc1cc2c(-c3ccnc(Cl)c3)ccc(C)c2cn1 [Example 27, 1-[5-(2-chloro-pyridin-4-yl)-8-methyl-isoquinolin-3-yl]-3-ethyl-urea] | 2 (≈ 5.87 µM)
15 | CCNC(=O)Nc1cc2cc(-c3cccc(O)c3)cc(C)c2cn1 [Example 20, 1-ethyl-3-[6-(3-hydroxy-phenyl)-8-methyl-isoquinolin-3-yl]-urea] | 0.5 (≈ 1.56 µM)
16 | CCNC(=O)Nc1cc2c(NCC)ccc(C)c2cn1 [Example 63, 1-ethyl-3-(5-ethylamino-8-methyl-isoquinolin-3-yl)-urea] | 2 (≈ 7.34 µM)
17 | CCNC(=O)Nc1cc2cccc(Nc3ccc(C)c(C(=O)OC)c3)c2cn1 [Example 264, 5-[3-(3-ethyl-ureido)-isoquinolin-8-ylamino]-2-methyl-benzoic acid methyl ester] | 8 (≈ 21.1 µM)
18 | CCNC(=O)Nc1cc2cc(-c3cncc(C)c3)cc(C)c2cn1 [Example 39, 1-ethyl-3-[8-methyl-6-(5-methyl-pyridin-3-yl)-isoquinolin-3-yl]-urea] | 1 (≈ 3.12 µM)
19 | CCNC(=O)Nc1cc2c(F)c(-c3cccnc3)cc(-c3cccnc3)c2cn1 [Example 53, 1-ethyl-3-(5-fluoro-6,8-di-pyridin-3-yl-isoquinolin-3-yl)-urea] | 8 (≈ 20.6 µM)
